Results from US20150038435A1, “N-TERMINALLY MODIFIED OLIGOPEPTIDES AND USES THEREOF” (Novo Nordisk A/S, priority 2012, published 2015).
*: point of attachment. Lauroyl = CCCCCCCCCCCC(=O)*

Legend:
[1] = Hydrophobicity: retention time during reverse phase HPLC; type: physicochemical; details: Acquity CSH C18; pH 7.2 buffer/CH3CN gradient; 40° C.
Excerpt: The retention time (RT) during reverse phase HPLC was taken as a measure of hydrophobicity of an N-terminally modified peptide or oligopeptide of the invention, where the connection is: The longer the RT, the more hydrophobic N-terminally modified peptide or oligopeptide. The following running conditions were applied during HPLC analysis:
Buffer B: 70% (v/v) aq. CH3CN

Chymotrypsin = assay: Inhibition of enzymatic degradation of a model GLP-1 (FRET substrate) by chymotrypsin; type: biochemical; details: compound 0.1 mM, buffer containing 8% DMSO
Procedure, shortened: (§1)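 Initial-rate slopes of fluorescence rise (320 nm ex, 405 nm em), fitted over the linear early phase and averaged from duplicates, were plotted against inhibitor concentration and fitted logistically to give EC50. Reactions ran at 37° C in Dulbecco's PBS, with MCA/DNP GLP-1 FRET substrate added as 10 μl of 100 μM stock.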

Trypsin = assay: Inhibition of enzymatic degradation of a model GLP-1 (FRET substrate) by trypsin; type: biochemical; details: compound 0.1 mM, buffer containing 8% DMSO
Procedure, shortened: as §1

Row | Substance | RT (retention time during reverse phase HPLC as a measure of hydrophobicity) [1] | Slope of the initial increase in fluorescence obtained during incubation with 0.001 mg/ml Chymotrypsin (Chymotrypsin) | Slope of the initial increase in fluorescence obtained during incubation with 0.001 mg/ml Trypsin (Trypsin)
1 | N-dodecanoyl-Asn-Ala-Pro-Tyr-OH (Lauroyl-NAPY-OH; SMILES CCCCCCCCCCCC(=O)N[C@@H](CC(N)=O)C(=O)N[C@@H](C)C(=O)N1CCC[C@H]1C(=O)N[C@@H](Cc1ccc(O)cc1)C(=O)O) [Example 94] | 4.77 min | 1.83 | 1.90
2 | N-dodecanoyl-Asn-Pro-Tyr-OH [Example 114] | 5.07 min | 2.01 | 1.99
3 | N-dodecanoyl-Asp-Ala-Ala-Pro-Tyr-OH [Example 95] | 3.92 min | 0.10 | 1.82
4 | N-dodecanoyl-Asp-Ala-Pro-Tyr-OH (Lauroyl-DAPY-OH; SMILES CCCCCCCCCCCC(=O)N[C@@H](CC(=O)O)C(=O)N[C@@H](C)C(=O)N1CCC[C@H]1C(=O)N[C@@H](Cc1ccc(O)cc1)C(=O)O) [Example 96] | 3.86 min | 1.63 | 1.78
5 | N-dodecanoyl-Asp-Pro-Tyr-OH [Example 115] | 3.91 min | 2.04 | 1.73
6 | N-dodecanoyl-Gln-Ala-Ala-Pro-Tyr-OH [Example 102] | 4.82 min | 0.14 | 1.66
7 | N-dodecanoyl-Gln-Ala-Pro-Tyr-OH (Lauroyl-QAPY-OH; SMILES CCCCCCCCCCCC(=O)N[C@@H](CCC(N)=O)C(=O)N[C@@H](C)C(=O)N1CCC[C@H]1C(=O)N[C@@H](Cc1ccc(O)cc1)C(=O)O) [Example 103] | 4.92 min | 1.13 | 1.78
8 | N-dodecanoyl-Gln-Pro-Tyr-OH [Example 116] | 5.08 min | 1.48 | 1.75
9 | N-dodecanoyl-Glu-Ala-Ala-Pro-Tyr-OH [Example 104] | 3.83 min | 0.16 | 1.63
10 | N-dodecanoyl-Glu-Ala-Pro-Tyr-OH (Lauroyl-EAPY-OH; SMILES CCCCCCCCCCCC(=O)N[C@@H](CCC(=O)O)C(=O)N[C@@H](C)C(=O)N1CCC[C@H]1C(=O)N[C@@H](Cc1ccc(O)cc1)C(=O)O) [Example 105] | 3.91 min | 1.31 | 1.56
11 | N-dodecanoyl-Glu-Pro-Tyr-OH [Example 117] | 3.91 min | 1.82 | 1.66
12 | N-dodecanoyl-Gly-Ala-Ala-Pro-Tyr-OH [Example 36] | 5.33 min | 0.16 | 1.47
13 | N-dodecanoyl-Gly-Pro-Tyr-OH [Example 118] | 5.35 min | 1.94 | 1.84
14 | N-dodecanoyl-His-Ala-Ala-Pro-Tyr-OH [Example 38] | 4.94 min | 0.02 | 1.66
15 | N-dodecanoyl-His-Ala-Pro-Tyr-OH (Lauroyl-HAPY-OH; SMILES CCCCCCCCCCCC(=O)N[C@@H](Cc1c[nH]cn1)C(=O)N[C@@H](C)C(=O)N1CCC[C@H]1C(=O)N[C@@H](Cc1ccc(O)cc1)C(=O)O) [Example 39] | 5.08 min | 0.27 | 1.84
16 | N-dodecanoyl-His-Pro-Tyr-OH [Example 119] | 5.12 min | 0.70 | 2.13
17 | N-dodecanoyl-Ile-Ala-Pro-Tyr-OH (Lauroyl-IAPY-OH; SMILES CCCCCCCCCCCC(=O)N[C@H](C(=O)N[C@@H](C)C(=O)N1CCC[C@H]1C(=O)N[C@@H](Cc1ccc(O)cc1)C(=O)O)[C@@H](C)CC) [Example 41] | 7.76 min | 0.84 | 1.96
18 | N-dodecanoyl-Ile-Pro-Tyr-OH [Example 120] | 7.82 min | 0.17 | 1.08
19 | N-dodecanoyl-Leu-Ala-Ala-Pro-Tyr-OH [Example 42] | 7.87 min | 0.00 | 0.89
20 | N-dodecanoyl-Leu-Ala-Pro-Tyr-OH (Lauroyl-LAPY-OH; SMILES CCCCCCCCCCCC(=O)N[C@@H](CC(C)C)C(=O)N[C@@H](C)C(=O)N1CCC[C@H]1C(=O)N[C@@H](Cc1ccc(O)cc1)C(=O)O) [Example 43] | 7.86 min | 0.21 | 1.36
21 | N-dodecanoyl-Leu-Pro-Tyr-OH [Example 121] | 7.77 min | 0.34 | 1.35
22 | N-dodecanoyl-Lys-Ala-Pro-Tyr-OH (Lauroyl-KAPY-OH; SMILES CCCCCCCCCCCC(=O)N[C@@H](CCCCN)C(=O)N[C@@H](C)C(=O)N1CCC[C@H]1C(=O)N[C@@H](Cc1ccc(O)cc1)C(=O)O) [Example 45] | 4.62 min | 0.89 | 1.84
23 | N-dodecanoyl-Lys-Pro-Tyr-OH [Example 122] | 5.17 min | 0.26 | 1.68
24 | N-dodecanoyl-Met-Ala-Ala-Pro-Tyr-OH (Lauroyl-MAAPY-OH; SMILES CCCCCCCCCCCC(=O)N[C@@H](CCSC)C(=O)N[C@@H](C)C(=O)N[C@@H](C)C(=O)N1CCC[C@H]1C(=O)N[C@@H](Cc1ccc(O)cc1)C(=O)O) [Example 46] | 7.06 min | 0.09 | 1.76
25 | N-dodecanoyl-Met-Ala-Pro-Tyr-OH (Lauroyl-MAPY-OH; SMILES CCCCCCCCCCCC(=O)N[C@@H](CCSC)C(=O)N[C@@H](C)C(=O)N1CCC[C@H]1C(=O)N[C@@H](Cc1ccc(O)cc1)C(=O)O) [Example 47] | 7.09 min | 0.48 | 1.77
